From patent US20240216344A1, “THIAZOLIDINEDIONE ANALOGS FOR THE TREATMENT OF NAFLD AND METABOLIC DISEASES” (Cirius Therapeutics, Inc., priority 2019, published 2024)

Experiments:
MPC = biological target: T1, MPC (Homo sapiens, UniProt O95563+Q9Y5U8); assay: Relative binding affinity for the MPC (FIG. 8)
T1 sequence (Q9Y5U8 1-109): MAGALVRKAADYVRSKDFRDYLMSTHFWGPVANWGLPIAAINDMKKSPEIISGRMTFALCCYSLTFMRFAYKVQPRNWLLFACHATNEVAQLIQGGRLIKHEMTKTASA
T1 sequence (O95563 1-127): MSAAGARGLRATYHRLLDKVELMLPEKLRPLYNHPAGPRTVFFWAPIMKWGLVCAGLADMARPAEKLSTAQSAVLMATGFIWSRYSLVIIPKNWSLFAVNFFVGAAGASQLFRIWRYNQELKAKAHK

[1] = system: diet-induced obese (60% HF diet) LS-MPC2−/− and WT (fl/fl) mice; assay: Single gavage dose in diet-induced obese WT and LS-MPC2−/− mice: GTT, plasma insulin, plasma ALT, liver qPCR; format: in vivo; details: for glucose tolerance (GTT): 20 h after a single dose of 30 mg/kg
Method: 8 week old WT and LS-MPC2−/− mice were fed a diet of 60% fat (Research Diets D12492) for 20 weeks to induce obesity and insulin resistance. Intraperitoneal glucose tolerance tests (GTT) were performed after a 4 h fast by injection of 1 g/kg D-glucose in saline i.p. to assess glucose tolerance. 3 days after the initial GTT, mice were randomized to receive a single gavage of either vehicle (1% CMC, 0.01% Tween-80) or 30 mg/kg MSDC-0602K. Plasma insulin was measured by Singulex assay and plasma ALT levels were measured by commercially-available kits (Teco Diagnostics). qPCR was performed by isolation of total RNA with RNA-Bee and reverse transcription with a high-capacity cDNA synthesis kit (Invitrogen). qPCR was performed on an Applied Biosystems real-time thermocycler.
WT (fl/fl) and LS-MPC2−/− mice were put on 60% HF diet and became equally obese. […] (FIGS. 1A-1C).

[2] = system: mouse model of NASH (HTF-C diet); assay: NASH (HTF-C) diet mice: serum small RNA sequencing; format: in vivo; details: HTF-C diet containing 331 ppm
Method: To begin evaluating the exosome cargo of MSDC-0602K-treated mice, WT mice were fed with either a low fat (LF) control diet (Research Diets D09100304) or high trans-fat, fructose, cholesterol (HTF-C) diet composed of 40% trans-fat, 20% fructose, 2% cholesterol (Research Diets D09100301).
Total RNA was isolated from 400 μL of serum and small RNA sequencing was performed by adapter ligation, cDNA synthesis and size selection of 145-160 base pairs. Sequencing was then performed on an Illumina HiSeq3000.
Heat map miRNAs (˜230 miRNAs) were selected by filtering data for 2-fold or greater change and FDR<0.1 comparing LF to HTF-C diet (not shown). […] Dysregulation of a number of these miRNAs has been previously identified in liver or other fibrotic diseases.

[3] = Phase 1 clinical trials in healthy volunteers (PK, safety); format: in vivo, human; details: 126 healthy volunteers

Compound: COc1cccc(C(=O)COc2ccc(CC3SC(=O)NC3=O)cc2)c1 (stereo not drawn) [MSDC-0602]
- binding to the MPC (MPC): maintain, and in some cases improve
- glucose tolerance (GTT) ([1]; LS-MPC2−/− mice): no improvement in glucose tolerance
- beneficial effects on markers of liver injury ([1]; LS-MPC2−/− mice, acute treatment): refractory
- glucose tolerance (GTT) ([1]; WT mice): improved glucose tolerance
- gene expression for hepatic stellate cell activation and fibrotic scar formation ([1]; WT mice, single dose): decreased gene expression
- plasma ALT concentrations ([1]; WT mice, single dose): decreased plasma ALT concentrations
- plasma insulin values ([1]; both WT and LS-MPC2−/− mice, single dose 30 mg/kg): decreased
- serum miRNAs altered in a mouse model of NASH [2]: largely corrected
- deaths, serious or severe adverse events, discontinuations due to adverse events [3]: abdominal bloating. No deaths, serious adverse events, severe adverse
